Columns and labels:
Vero E6 [1] = assay: relative viability EC50 (midpoint between 100% and the lowest measured viability); higher = less toxic; conditions: 72 h
U2OS [2] = assay: as above; conditions: 72 h
Caco-2 [3] = assay: as above; conditions: 72 h
Calu-3 [4] = assay: as above; conditions: 72 h
HepG2 [5] = assay: as above; conditions: 72 h
[6] = system: A549-ACE2 infected with SARS-CoV-2; assay: SARS-CoV-2 infection rate relative to DMSO; higher = more infection; conditions: 24 h
[7] = system: A549-ACE2 infected with SARS-CoV-2; assay: cell count relative to DMSO; higher = less toxic; conditions: 24 h
Vero E6 [8] = assay: cell viability relative to DMSO; higher = less toxic; conditions: 72 h
U2OS [9] = assay: as above; conditions: 72 h
Caco-2 [10] = assay: as above; conditions: 72 h
Calu-3 [11] = assay: as above; conditions: 72 h
HepG2 [12] = assay: as above; conditions: 72 h
Vero E6 [13] = assay: drug sensitivity score (DSS) for viability; higher = more toxic; extreme values may be limits of the assay; conditions: 72 h
U2OS [14] = assay: as above; conditions: 72 h
Caco-2 [15] = assay: as above; conditions: 72 h
Calu-3 [16] = assay: as above; conditions: 72 h
HepG2 [17] = assay: as above; conditions: 72 h
[18] = system: A549-ACE2 infected with SARS-CoV-2; assay: morphology score (similarity to uninfected cells); higher = more like uninfected cells; conditions: 24 h
A549-ACE2 [19] = assay: drug-induced phospholipidosis relative to tamoxifen; higher = more phospholipidosis
A549-ACE2 [20] = assay: phospholipidosis EC50; higher = less potent phospholipidosis inducer

O=C1C=C2C=C[C@@H]3C[C@@]2(O1)[C@H]1CCCCN31 [securinine]
Conditions	drug sensitivity score	relative viability EC50 [µM]
Caco-2 [3]	–	> 10
Caco-2 [15]	0	–
Calu-3 [4]	–	> 10
Calu-3 [16]	0	–
HepG2 [5]	–	> 10
HepG2 [17]	0	–
U2OS [2]	–	> 10
U2OS [14]	0	–
Vero E6 [1]	–	> 10
Vero E6 [13]	0	–

Conditions	SARS-CoV-2 infection rate, [6] [%]	cell count, [7] [%]	cell viability, Caco-2 [10] [%]	cell viability, Calu-3 [11] [%]	cell viability, HepG2 [12] [%]	cell viability, U2OS [9] [%]	cell viability, Vero E6 [8] [%]	morphology score, [18]
1 nM	–	–	76.4	96.5	94.9	103	93.1	–
10 nM	–	–	91.5	88.5	103	94.9	101	–
100 nM	–	–	104	101	104	103	92.5	–
0.3 µM	108	92	–	–	–	–	–	-0.16
1000 nM	–	–	90.1	92.1	108	95.1	97.5	–
3 µM	107	97	–	–	–	–	–	-0.26
10 µM	109	103	–	–	–	–	–	-0.24
10000 nM	–	–	99.5	98.5	99.8	94.9	101	–
30 µM	87	84	–	–	–	–	–	-0.11

drug-induced phospholipidosis [%], A549-ACE2 [19]
Conditions	0.3 µM	0.833333 µM	3.33333 µM	6.66667 µM	10 µM	30 µM
24 h	4.04	-1.29	-2.26	-0.14	0.15	3.11
48 h	4.43	0.73	0.81	3.64	1.66	8.62
72 h	5.5	-2.31	1.12	1.57	2.55	11.9

Fc1ccc(-n2cc(CCCCN3CCC4(CC3)OCc3ccccc34)c3ccccc32)cc1 [siramesine]
Conditions	drug sensitivity score	relative viability EC50 [µM]
Caco-2 [3]	–	3.26
Caco-2 [15]	3.3	–
Calu-3 [4]	–	3.44
Calu-3 [16]	4.2	–
HepG2 [5]	–	3.03
HepG2 [17]	4.4	–
U2OS [14]	2.2	–
Vero E6 [13]	2.2	–

Conditions	SARS-CoV-2 infection rate [%]	cell count [%]	cell viability [%]	morphology score	phospholipidosis EC50 [µM]
A549-ACE2 [20], 72 h	–	–	–	–	4.1
Caco-2 [10], 1 nM	–	–	97.3	–	–
Caco-2 [10], 10 nM	–	–	104	–	–
Caco-2 [10], 100 nM	–	–	85.1	–	–
Caco-2 [10], 1000 nM	–	–	101	–	–
Caco-2 [10], 10000 nM	–	–	37.5	–	–
Calu-3 [11], 1 nM	–	–	88.8	–	–
Calu-3 [11], 10 nM	–	–	94.3	–	–
Calu-3 [11], 100 nM	–	–	88.2	–	–
Calu-3 [11], 1000 nM	–	–	104	–	–
Calu-3 [11], 10000 nM	–	–	17.8	–	–
HepG2 [12], 1 nM	–	–	97.7	–	–
HepG2 [12], 10 nM	–	–	100	–	–
HepG2 [12], 100 nM	–	–	93.5	–	–
HepG2 [12], 1000 nM	–	–	98.6	–	–
HepG2 [12], 10000 nM	–	–	24	–	–
U2OS [9], 1 nM	–	–	100	–	–
U2OS [9], 10 nM	–	–	97.7	–	–
U2OS [9], 100 nM	–	–	95.6	–	–
U2OS [9], 1000 nM	–	–	103	–	–
U2OS [9], 10000 nM	–	–	53.2	–	–
Vero E6 [8], 1 nM	–	–	98.9	–	–
Vero E6 [8], 10 nM	–	–	93.5	–	–
Vero E6 [8], 100 nM	–	–	99.2	–	–
Vero E6 [8], 1000 nM	–	–	89	–	–
Vero E6 [8], 10000 nM	–	–	73.5	–	–
[6], 0.1 µM	93	–	–	–	–
[6], 0.3 µM	50	–	–	–	–
[6], 1 µM	60	–	–	–	–
[6], 3 µM	26	–	–	–	–
[7], 0.1 µM	–	111	–	–	–
[7], 0.3 µM	–	114	–	–	–
[7], 1 µM	–	117	–	–	–
[7], 3 µM	–	111	–	–	–
[18], 0.1 µM	–	–	–	0.38	–
[18], 0.3 µM	–	–	–	0.75	–
[18], 1 µM	–	–	–	0.69	–
[18], 3 µM	–	–	–	0.84	–

drug-induced phospholipidosis [%], A549-ACE2 [19]
Conditions	0.3 µM	0.833333 µM	3.33333 µM	6.66667 µM	10 µM
24 h	2.74	5.08	32.4	33.5	24.5
48 h	4.1	0.61	22.6	47.9	–
72 h	0.56	0.623	23.8	61.4	–

Cc1[nH]c(/C=C2\C(=O)Nc3ccc(F)cc32)c(C)c1C(=O)NCCN1CCCC1 [toceranib]
Conditions	drug sensitivity score	relative viability EC50 [µM]
Caco-2 [3]	–	> 10
Caco-2 [15]	0	–
HepG2 [17]	2	–
U2OS [2]	–	> 10
U2OS [14]	0.5	–
Vero E6 [13]	0.8	–

Conditions	SARS-CoV-2 infection rate [%]	cell count [%]	cell viability [%]	morphology score	phospholipidosis EC50 [µM]
A549-ACE2 [20], 24 h	–	–	–	–	16.5
Caco-2 [10], 1 nM	–	–	95.6	–	–
Caco-2 [10], 10 nM	–	–	94.8	–	–
Caco-2 [10], 100 nM	–	–	98.8	–	–
Caco-2 [10], 1000 nM	–	–	105	–	–
Caco-2 [10], 10000 nM	–	–	92.9	–	–
HepG2 [12], 1 nM	–	–	99.4	–	–
HepG2 [12], 10 nM	–	–	107	–	–
HepG2 [12], 100 nM	–	–	97.3	–	–
HepG2 [12], 1000 nM	–	–	106	–	–
HepG2 [12], 10000 nM	–	–	53.9	–	–
U2OS [9], 1 nM	–	–	95.5	–	–
U2OS [9], 10 nM	–	–	97.9	–	–
U2OS [9], 100 nM	–	–	103	–	–
U2OS [9], 1000 nM	–	–	96.3	–	–
U2OS [9], 10000 nM	–	–	85.2	–	–
Vero E6 [8], 1 nM	–	–	89.9	–	–
Vero E6 [8], 10 nM	–	–	99.1	–	–
Vero E6 [8], 100 nM	–	–	101	–	–
Vero E6 [8], 1000 nM	–	–	106	–	–
Vero E6 [8], 10000 nM	–	–	73.2	–	–
[6], 0.1 µM	88	–	–	–	–
[6], 0.3 µM	107	–	–	–	–
[6], 1 µM	100	–	–	–	–
[6], 3 µM	80	–	–	–	–
[7], 0.1 µM	–	107	–	–	–
[7], 0.3 µM	–	103	–	–	–
[7], 1 µM	–	102	–	–	–
[7], 3 µM	–	111	–	–	–
[18], 0.1 µM	–	–	–	0.22	–
[18], 0.3 µM	–	–	–	-0.03	–
[18], 1 µM	–	–	–	0.33	–
[18], 3 µM	–	–	–	0.51	–

drug-induced phospholipidosis [%], A549-ACE2 [19]
Conditions	0.3 µM	0.833333 µM	3.33333 µM	6.66667 µM	10 µM	30 µM
24 h	4.88	-0.73	12.9	38.6	54.2	119
48 h	5.94	-0.83	1.11	20.1	38.4	–
72 h	4.25	-2.8	-0.0471	16	34	–

From the supplement of paper PMC13380429
